Reference: US6825210B2, “Tricyclic compounds useful as HIV reverse transcriptase inhibitors” (Bristol-Myers Squibb Pharma Company, priority 2001, dated 2004)
Converted amounts (≈) assume the structure as drawn.

Tested on: not given
Assay: not given
Conditions: not given

| melting point [°C] | SMILES |
| --- | --- |
| 96 to 97 | CC(C)OCC1(C(F)(F)F)c2cc(F)ccc2Nc2ncc(Cl)cc21 (stereo not drawn) [Compound 6, 3-Chloro-7-fluoro-5-isopropoxymethyl-5-trifluoromethyl-5,10-dihydro-benzo[b][1,8]naphthyridine] |
| 165 to 166 | CC(C)OCC1(C(F)(F)F)c2cc(F)ccc2Nc2c1cc(Cl)c[n+]2[O-] (stereo not drawn) [Compound 7, 3-Chloro-7-fluoro-5-isopropoxymethyl-5-trifluoromethyl-5,10-dihydro-benzo[b][1,8]naphthyridine 1-oxide] |
| 226 to 227 | CC(C)OCC1(C(F)(F)F)c2cc(C#N)ccc2Nc2ncc(C#N)cc21 (stereo not drawn) [Compound 17, 3,7-dicyano-5-trifluoromethyl-5-isopropoxymethyl-5,10-dihydrobenzo[b][1,8]naphthyridine] |
| 76 to 77 | CC(C)OCC1(C(F)(F)F)c2cc(C#N)ccc2Nc2ncc(Br)cc21 (stereo not drawn) [Compound 15, 3-bromo-7-cyano-5-trifluoromethyl-5-isopropoxymethyl-5,10-dihydrobenzo[b][1,8]naphthyridine] |
| 137 to 138 | CC(C)OCC1(C(F)(F)F)c2cc(Cl)ccc2Nc2ncc(Cl)cc21 (stereo not drawn) [Compound 9, 3,7-Dichloro-5-isopropoxymethyl-5-trifluoromethyl-5,10-dihydro-benzo[b][1,8]naphthyridine] |

Tested on: HIV-1 (RF)
Assay: HIV RNA assay: microplate based compound evaluation in HIV-1 infected MT-2 cells
Type: cell-based
Conditions: Human immunodeficiency virus 1, MT2, 72 h; HIV-1 (RF) infected MT-2 cells, 3 days culture; value used to standardize the virus inoculum; read-out: IC90 (concentration of compound required to reduce the HIV RNA level by 90%)
Protocol: DNA Plasmids and in Vitro RNA Transcripts:
Plasmid pDAB 72 containing both gag and pol sequences of BH10 (bp 113-1816) cloned into PTZ 19R was prepared according to Erickson-Viitanen et al. AIDS Research and Human Retroviruses 1989, 5, 577. The plasmid was linearized with Bam HI prior to the generation of in vitro RNA transcripts using the Riboprobe Gemini system II kit (Promega) with T7 RNA polymerase. Synthesized RNA was purified by treatment with RNase free DNAse (Promega), phenol-chloroform extraction, and ethanol precipitation. RNA transcripts were dissolved in water, and stored at −70° C. The concentration of RNA was determined from the A260.
Biotinylated capture probes were purified by HPLC after synthesis on an Applied Biosystems (Foster City, Calif.) DNA synthesizer by addition of biotin to the 5′ terminal end of the oligonucleotide, using the biotin-phosphoramidite reagent of Cocuzza, Tet. Lett. 1989, 30, 6287. […]
MT-2 and MT-4 cells were maintained in RPMI 1640 supplemented with 5% fetal calf serum (FCS) for MT-2 cells or 10% FCS for MT-4 cells, 2 mM L-glutamine and 50 μg/mL gentamycin, all from Gibco. […] Infectious titers of HIV-1(RF) stocks were 1-3×10^7 PFU (plaque forming units)/mL as measured by plaque assay on MT-2 cells (see below). […]

| IC90 [µg/mL] | SMILES |
| --- | --- |
| 0.2 (≈ 0.947 µM) | Nc1ccn([C@H]2CC[C@@H](CO)O2)c(=O)n1 [ddC, 2′,3′-dideoxycytidine] |
